How the values were obtained:
recombinant human CLK3 = target: T1, recombinant human CLK3 (Homo sapiens, UniProt P49761); experiment: CLK3 kinase assay (LANCE Ultra); format: biochemical; conditions: CLK3 0.5 nM, ATP 300 μM, 3 hours at 30° C.
T1 construct: purchased Thermo Fisher Scientific PV3826
Summary of the method: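 Recombinant human CLK3 (0.5 nM) with ULight-CREBtide (50 nM) and 300 μM ATP, 3 h at 30 °C in kinase buffer; EDTA stop, then Eu-anti-phospho-CREB antibody (2 nM, 1 h RT), TR-FRET read at 665/620 nm. Inhibition normalized to DMSO and no-ATP wells; IC50 from 4-parameter fit, ten 1:3 concentrations in duplicate.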

[1] = test system: SW480 human colorectal cancer cells; experiment: SW480 colorectal cancer mouse xenograft model; format: in vivo, NOD/SCID mice
Method: NOD/SCID mice of circa 23 g of weight were inoculated with 1×10^7 SW480 human colorectal cancer cells in 50% Matrigel™ subcutaneously in a flank. A pair match was performed when tumors reached an average volume of 100-150 mm^3 to distribute animals into treatment group and vehicle control (n=8/group). Tumor volumes (expressed in mm^3) were measured twice weekly using a caliper on days 1, 4, 8, 11, 15, 18, 22 and 23 of the treatment period. (A) The average TVol (±standard error of mean (SEM)) of each treatment group are shown. […] (B) Changes in BW in percentage (expressed in g, ±SEM) on days 1, 4, 8, 11, 15, 18, 22 and 23 of the treatment period. (C) Changes in vehicle- and Example 13-treated TVol expressed in mm^3. TVol ratio of Example 13-treated vs vehicle control (T/C) is indicated.
The efficacy of Example 13 was assessed in a mouse xenograft model. To this end, the SW480 colorectal cancer xenograft model was used, in which the tumor cells were injected subcutaneously into the flanks of immune-deficient NOD/SCID mice (lack functional/mature T and B cells, functional immature macrophages and residual NK cell function). […]
Tumor volumes (expressed in mm^3) were measured in two dimensions using a caliper on days 1, 4, 8, 11, 15, 18, 22 and 23 of the treatment period. […]

T1 sequence (P49761 whole entry): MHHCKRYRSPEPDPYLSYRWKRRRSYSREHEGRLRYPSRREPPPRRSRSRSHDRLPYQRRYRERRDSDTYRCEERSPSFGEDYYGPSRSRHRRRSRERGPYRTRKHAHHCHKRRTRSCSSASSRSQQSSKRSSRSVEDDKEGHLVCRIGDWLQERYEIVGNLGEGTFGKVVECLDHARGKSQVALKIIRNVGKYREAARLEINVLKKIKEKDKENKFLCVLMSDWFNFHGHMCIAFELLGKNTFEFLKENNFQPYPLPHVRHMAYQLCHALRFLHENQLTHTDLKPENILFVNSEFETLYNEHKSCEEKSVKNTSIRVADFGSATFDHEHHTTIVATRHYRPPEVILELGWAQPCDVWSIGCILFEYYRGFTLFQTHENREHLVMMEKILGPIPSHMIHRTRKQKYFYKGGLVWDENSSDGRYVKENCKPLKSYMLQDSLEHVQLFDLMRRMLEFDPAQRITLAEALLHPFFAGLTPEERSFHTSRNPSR

IC50 (recombinant human CLK3): 0.03 to 0.1 µM
Structure (SMILES): COCCN(C)c1c(O[C@H]2CC[C@H](N)CC2)ccc2c1CC(C)(C)c1c(N)ncnc1-2 [Example 13, 8-(trans-4-aminocyclohexoxy)-N7-(2-methoxyethyl)-N7,5,5-trimethyl-6H-benzo[h]quinazoline-4,7-diamine]
tumor volumes during the treatment period compared with vehicle-treated ([1]; oral 45 mg/kg BID*BIW, treatment period): consistently smaller | tumor volumes as % of the volume of the vehicle-treated group (T/C) ([1]; study endpoint day 23, oral BID*BIW, 45 mg/kg days 1-10, 50 mg/kg days 11-22, p=0.06): 61%
